The structures appear in SMILES notation.

For the first test, the system named is GUMC-403. Description: viability at highest tested concentration (max response) relative to DMSO (% of DMSO control); higher = less cytotoxic. The conditions noted are these: library / dose series: MIPE library, 11-point 1:3 dilution; top concentration 23 µM; 48 h. In short, it runs like this: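 In 1536-well plates, 700 GUMC-403 papilloma cells per well, taken from a patient and grown by conditional reprogramming, were seeded in 5 μL F + Y medium and incubated overnight at 37 °C. Compounds were pinned in at 23 nL in an 11-point 1:3 series, and left for 48 h before CellTiter-Glo luminescence was read on a ViewLux against vehicle (100%) and empty (0%) wells. Reported values are viability at the highest tested concentration relative to vehicle control.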
Regarding `Cn1cc(C[C@@H](N)C(=O)O)c2ccccc21`, the viability was found to be 111.

Still in this test, the particulars now being: library / dose series: MIPE library, 11-point 1:3 dilution; top concentration 46.1 µM; 48 h.
Take `COC(=O)N[C@H](C(=O)N1CCC[C@H]1c1ncc(-c2ccc(-c3ccc(-c4cnc([C@@H]5CCCN5C(=O)[C@@H](NC(=O)OC)C(C)C)[nH]4)cc3)cc2)[nH]1)C(C)C`: the viability is 138.

`C#Cc1cccc(Nc2ncnc3cc(OCCOC)c(OCCO)cc23)c1` came in with a viability of 47.5.

With `COc1ccc(-n2c(C)c([N+](=O)[O-])c3ccc(O)cc32)cc1`, the viability was 87.

The compound `CN(C)NC(=O)CCC(=O)O` gave a viability of 101.

As for `CN1CCCN(C(=O)c2cccc(-c3ccc(/C=C4/C(=O)Nc5ccc(Cl)cc54)o3)c2)CC1`, the viability was found to be 97.7.

`COC1=CC2=C(C=C1OC)[C@H]3[C@@H](CO2)OC4=C(C=CC5=C4\C=C/C(C)(C)O5)C3=O` displayed a viability of 115.

For the compound `CCn1c(=O)c2c(nc(/C=C/c3ccc(OC)c(OC)c3)n2C)n(CC)c1=O`, the viability amounted to 134.

On to `NC(=O)N/N=C/c1ccc([N+](=O)[O-])o1`, for which the viability was 135.

Turning to `COc1cc2nc(-c3cc(F)ccc3O)nc(N[C@@H]3CNC[C@H]3C(C)(C)O)c2cc1OC`, the viability was determined as 59.9.

As to `CC(=O)O[C@@]1(CC[C@H]2[C@@H]3\C=C(C)/C4=C/C(=O)CC[C@]4(C)[C@H]3CC[C@]12C)C(C)=O`, the viability was 127.

As to `COc1cc(N2CCC(N3CCN(C)CC3)CC2)ccc1Nc1ncnc(Nc2ccccc2[S+](=O)([O-])C(C)C)n1`, the viability amounted to 49.4.

Compound `C[C@H]1[C@H](NC(=O)/C(=N/OC(C)(C)C(=O)O)c2csc(N)n2)C(=O)N1[S+](=O)([O-])O` gave a viability of 114.

`Nc1ccccc1NC(=O)c1ccc(CNc2nccc(-c3cccnc3)n2)cc1` displayed a viability of 85.9.

As to `NC(=O)c1ncn([C@@H]2O[C@H](CO)[C@@H](O)[C@H]2O)c1N`, the viability came out at 118.

Regarding `O=C(Nc1ccccc1-c1cn2c(CN3CCNCC3)csc2n1)c1cnc2ccccc2n1`, the viability was 81.3.

In turn, `C[C@]12CCC\3=C\4CCC(=O)\C=C4CC[C@H]3[C@@H]1CC[C@@]2(O)CC#N` registered a viability of 122.

On to `[NH2][Pt]1([NH2])[O]CC(=O)[O]1`, for which the viability was found to be 142.

For the compound `O=C1NC(=O)/C(=C/c2ccc(-c3ccc(F)cc3O)o2)S1`, the viability was 83.

As to `CC[C@]1(O)C[C@@H]2CN(CCc3c([nH]c4ccccc34)[C@@](C(=O)OC)(c3cc4c(cc3OC)N(C)[C@H]3[C@@](O)(C(N)=O)[C@H](O)[C@]5(CC)C=CCN6CC[C@]43[C@@H]65)C2)C1`, the viability was 114.

`OC(=O)\C1=C\N(C2CC2)C3=CC(=C(F)C=C3C1=O)N4CCNCC4`: the viability turned out to be 105.

For the compound `Cc1cccc(-c2[nH]c(C(C)(C)C)nc2-c2ccc3nccnc3c2)n1`, the viability is 140.

For the compound `Cc1ccc(C(=O)Nc2ccc([S+](=O)([O-])O)c3cc([S+](=O)([O-])O)cc([S+](=O)([O-])O)c23)cc1NC(=O)c1cccc(NC(=O)Nc2cccc(C(=O)Nc3cc(C(=O)Nc4ccc([S+](=O)([O-])O)c5cc([S+](=O)([O-])O)cc([S+](=O)([O-])O)c45)ccc3C)c2)c1`, the viability was determined as 123.

Turning to `Cc1oncc1C(=O)Nc1ccc(C(F)(F)F)cc1`, the viability stood at 105.

In turn, `CCOc1ccc(Cc2cc([C@@H]3O[C@H](CO)[C@@H](O)[C@H](O)[C@H]3O)ccc2Cl)cc1` registered a viability of 130.

`CC1(CN2CCC(n3c(=O)[nH]c4ccccc43)CC2)OCc2ccccc2-n2cccc21` (stereo not drawn) showed a viability of 82.8.

For the compound `C[C@]12CC[C@H]3[C@@H](C\C=C/4C[C@@H](O)CC[C@]34C)[C@@H]1CCC2=O`, the viability stood at 101.

Compound `CC(=O)NCCC(=O)N[C@@H](CCC(N)=O)C(=O)N[C@@H](CO)C(=O)N[C@@H](CCC(N)=O)C(=O)N[C@@H](CCC(N)=O)C(=O)N[C@H](C(=O)N[C@@H](Cc1ccccc1)C(=O)N[C@]1(C)CCCCCC/C=C\CCC[C@@](C)(C(=O)N[C@@H](CCC(N)=O)C(=O)N[C@@H](CC(N)=O)C(N)=O)NC(=O)[C@H](CC(C)C)NC(=O)[C@H](CC(C)C)NC(=O)[C@@H](CCCNC(=N)N)NC(=O)[C@H](Cc2c[nH]c3ccccc23)NC(=O)[C@H](CC(C)C)NC(=O)[C@H](CC(N)=O)NC1=O)[C@H](C)O` yielded a viability of 99.6.

On to `Cn1cc(-c2ccc3nnc(C(F)(F)c4ccc5ncccc5c4)n3n2)cn1`, for which the viability was 110.

`CC(=O)NC(CS)C(=O)O` (stereo not drawn) returned a viability of 91.1.

`COc1ccc2[nH]c([S+]([O-])Cc3ncc(C)c(OC)c3C)nc2c1` (stereo not drawn) returned a viability of 88.8.

`CCCCNc1cc(C(=O)O)cc([S+](N)(=O)[O-])c1Oc1ccccc1`: the viability was found to be 138.

`Clc1ccccc1CN1CCc2sccc2C1` returned a viability of 141.

`O=C(Nc1cccc2c(=O)cc(-c3nnn[nH]3)oc12)c1ccc(OCCCCc2ccccc2)cc1`: the viability was 87.

Turning to `OC[C@H]1O[C@H](C[C@@H]1O)[N]2C=NC3=C2\N=C/NC[C@H]3O`, the viability is 83.1.

In the case of `O=C([O-])C(O)Cc1ccc(O)c(O)c1` (stereo not drawn), the viability worked out at 106.

In the case of `CC1(C)C(=O)N(CCN2CCC(C(=O)c3ccc(F)cc3)CC2)c2ccccc21`, the viability stood at 71.3.

As for `COc1cc2ncnc(Nc3cccc(Br)c3)c2cc1OC`, the viability came to 81.6.

For the compound `COc1ccc2c(c1)CC[C@@H](CN(C)CC(=O)O)[C@H]2c1ccccc1`, the viability was determined as 78.3.

Turning to `c1ccc2[nH]c(-c3cscn3)nc2c1`, the viability was 124.

In turn, `CC[C@H]1CN2CCc3cc(OC)c(OC)cc3[C@@H]2C[C@@H]1C[C@H]1NCCc2cc(OC)c(OC)cc21` displayed a viability of 79.9.

The compound `C[C@@H]1CC[C@@]2(CC[C@]3(C)\C(=C/C[C@@H]4[C@@]5(C)C[C@@H](O)[C@H](O)[C@@](C)(CO)[C@@H]5CC[C@@]34C)[C@@H]2[C@H]1C)C(O)=O` showed a viability of 114.

`CC(C)(C)Cn1c(N)nc2ccc(-c3[nH]c(C(C)(C)C)nc3-c3ccc(F)cc3)nc21` returned a viability of 76.7.

`CN1CCC(CC1)=C2C3=C(C=CC=C3)\C=C/C4=C2C=CC=C4` yielded a viability of 111.

`N#Cc1ccc(Oc2ccc3c(c2)COB3O)cc1` displayed a viability of 124.

Consider `CCC(C)SSc1ncc[nH]1` (stereo not drawn), for which the viability is 101.

`Nc1ncnc2c1c(-c1cccc(OCc3ccccc3)c1)cn2C1CC(CN2CCCC2)C1` (stereo not drawn) gave a viability of 78.1.

The compound `Cc1cc(NC(=O)Nc2ccc(N(C)C)cc2)c2cc(F)cc(F)c2n1` came in with a viability of 124.

The compound `C[C@](O)(CS(=O)(=O)c1ccc(F)cc1)C(=O)Nc1ccc(C#N)c(C(F)(F)F)c1` came in with a viability of 128.

Compound `COC1=CC=C(C=C1)C2CC(=N/N2C3=CC=C(C=C3)[S+](N)([O-])=O)\C4=CC=CC=C4` (stereo not drawn) yielded a viability of 137.

For the compound `C=C(c1ccc(C(=O)O)cc1)c1cc2c(cc1C)C(C)(C)CCC2(C)C`, the viability was 97.6.

Compound `CC(C)C(=O)Nc1ccc([N+](=O)[O-])c(C(F)(F)F)c1` registered a viability of 85.7.

Staying with this test, now noted: library / dose series: MIPE library, 11-point 1:3 dilution; top concentration 92.2 µM; 48 h.
Regarding `C[C@]12CCC(=O)C=C1CC[C@@H]1[C@@H]2CC[C@@]2(C)[C@H]1CC[C@]2(C)O`, the viability was 128.

The values above are taken from the supplement of paper PMC6723410.
